The values below come from article PMC10577883, “Design and Optimization of Novel Competitive, Non-peptidic, SARS-CoV-2 M^pro Inhibitors” (ACS Medicinal Chemistry Letters, 2023).

A short description of data set [1]: in vitro. Particulars: CD-1, mouse, microsomes.
Method: Metabolic Stability Assay
(§1) Liver Microsome Stability Assay Protocol
(§2) Human liver microsomes (HLMs, 20 mg/mL), CD-1 mouse liver microsomes (MLMs, 20 mg/mL), Sprague Dawley
(§3) rat liver microsomes (RLMs, 20 mg/mL) were purchased from Xenotech. NADPH was purchased from Sigma-
(§4) Aldrich and prepared in 10 mM stock solutions of distilled H2O (InvitrogenTM UltraPureTM). Verapamil and
(§5) diphenhydramine were both purchased from Sigma-Aldrich and served as positive controls for LM stability assays.
(§6) Test compounds and positive controls were initially dissolved in DMSO to make 10 mM stock solutions. Sample
(§7) solutions were then further diluted in 100% MeCN to 500 μM. Next, the reactions were prepared by mixing human
(§8) or mouse liver microsomes (55 μL) with potassium phosphate buffer (100 mM, 928 μL) in 1.5 mL Eppendorf tubes.
(§9) The test compounds (6.6 μL of 500 μM solution) were subsequently added to the suspensions, and the reaction
(§10) mixtures were incubated at 37 °C for 5 min. Afterward, the liver microsome reactions were initiated with 110 μL
(§11) of 10 mM NADPH and further incubated at 37 °C for the designated time course of the study. This procedure
(§12) provided experiments with a final volume of 1100 μL (0.6% organic solvent content) and a final test compound
(§13) concentration of 3 μM. Aliquots (100 μL) were removed from each reaction mixture in duplicate at 0, 5, 10, 15,
(§14) and 30 min time intervals and quenched with 100 μL of cold internal standard solution (ISTD, 2 μM
(§15) 7-ethoxy-d 5-coumarin in MeOH or MeCN). Quenched aliquots were then centrifuged at 12,500 g for 5-10 min, and
(§16) the resulting supernatants were withdrawn and placed in LC-MS vials to be analyzed by LC-MS/MS (Agilent
(§17) G6460C QQQ MS coupled with an Infinity II 1260 HPLC). Each test compound was run in tandem with positive and
(§18) negative control experiments for quality assurance. Positive control reactions were conducted at a final volume
(§19) of 550 μL for a single run of each time point. Lastly, the negative control experiment was conducted with test
(§20) compounds and liver microsomes in the absence of NADPH (150 μL) and analyzed at the 30 min time point.
(§21) Data Analysis. Each data point was analyzed in triplicate using in-between blank washes to avoid carry over and
(§22) to equilibrate the column for the subsequent runs. Averages of these triplicates for individual compounds at each
(§23) time point were then normalized to the data at 0 min, representing 100% test compound remaining or 0%
(§24) metabolism. Half-lives (t 1/2) were calculated by plotting ln of % test compound remaining versus time and
(§25) performing linear regression to determine slope.
(§26) Instrumentation and LC-MS/MS Method Development
(§27) LC-MS/MS analyses were conducted on an Agilent 1260 Infinity II HPLC equipped with an Agilent G6460 triple
(§28) quadrupole mass spectrometer (Agilent Technologies, USA). Reverse-phase HPLC separation for each compound
(§29) m) column maintained at 40 °C. The mobile phase used during analyses consisted of either MeOH-H2O (0.1% FA)
(§30) or MeCN-H2O (0.1% FA) at a flow rate of 0.5 mL/min. Each method was developed in the presence of the internal
(§31) standard (ISTD), 7-ethoxy-d 5-coumarin. Precursor and product ion detection was performed with Agilent Jet
(§32) Stream electrospray positive ionization (ESI+) in multiple reaction monitoring (MRM) mode. All MRM transitions,
(§33) MS conditions were as follows: dwell time of 100 ms; gas flow of 10 L/min; nebulizer pressure of 45 psi; delta EMV
(§34) of 200 V. Lastly, all acquired data was processed using Agilent 6460 Quantitative Analysis software.
The nature of data set [2]: in vitro. As to conditions: human, microsomes.
Method: Metabolic Stability Assay
as §1, §2, §3, §4, §5, §6, §7, §8, §9, §10, §11, §12, §13, §14, §15, §16, §17, §18, §19, §20, §21, §22, §23, §24, §25, §26, §27, §28, §29, §30, §31, §32, §33, §34
The nature of data set [3]: in vitro. Particulars: Sprague-Dawley, rat, microsomes.
Method: Metabolic Stability Assay
as §1, §2, §3, §4, §5, §6, §7, §8, §9, §10, §11, §12, §13, §14, §15, §16, §17, §18, §19, §20, §21, §22, §23, §24, §25, §26, §27, §28, §29, §30, §31, §32, §33, §34
The nature of data set [4]: Liver microsome metabolite identification (LC-HRMS). Type of data set: in vitro ADME. As to the method: Figure S15: Stability of 45 in rat liver microsomes (RLM) at 37 °C
Table S17: Stability of 43 in rat liver microsomes (RLM) at 37 °C
Time Response ratio Average RR Rel % ln
Metabolite identification
Procedure for Liver Microsome Metabolite Identification Assay: Test compounds and positive controls were dissolved in 100% DMSO to make 10 mM stock solutions. The 10 mM stock solutions of test and control […]
(1 picture or pasted object on this page, not shown here) […]
compounds were further diluted in potassium phosphate buffer (100 mM, pH 7.4) to 500 μM to ensure that the organic solvent content was < 0.2%. The liver microsome (HLM or MLM) assay was prepared in a 1.5 mL Eppendorf tube with a final volume of […] for duplicate runs. Each reaction contained phosphate buffer (374 μL), liver microsomes (550 μL), and test compound (66 μL of 500 resulting in a final concentration of 30 μM), μM for the […]
test compound. […] Aliquots (100 μL) were removed in […]
MS analysis was performed using full scan from a mass range of 100-700 m/z at 60k resolution with data dependent MS/MS and MSn programs enabled for the top 5 ions detected for each scan. Compounds are detected based on their MS1 precursor ion accurate mass m/z and identified with matching theoretical and observed accurate mass MS1 ions with interpretation of accurate mass MS/MS spectra from expected […]
A general note: Liver microsomes are vesicles of endoplasmic reticulum, rich in cytochrome P450 enzymes.

Data set [5] is described as follows: Human liver microsome stability assay.
Method: Metabolic Stability Assay
as §1, §2, §3, §4, §5, §6, §7, §8, §9, §10, §11, §12, §13, §14, §15, §16, §17, §18, §19, §20, §21, §22, §23, §24, §25, §26, §27, §28, §29, §30, §31, §32, §33, §34
In data set [6] the test system is SARS-CoV-2-Nluc reporter virus. In words: microbe, parasite or virus in culture. It is filed as cell-based. As to conditions: for pEC50: Severe acute respiratory syndrome coronavirus 2, VeroE6/TMPRSS2 cells, parentheses denote 95% confidence intervals.
For the next data set, the target named is SARS-CoV-2 Mpro (3CLpro) (Severe acute respiratory syndrome coronavirus 2, UniProt P0DTD1). Nature of the data set: SARS-CoV-2 recombinant protease enzymatic assay (FRET). Type of data set: biochemical.
Data set [7] can be described thus: Mouse liver microsome stability assay.
Method: Metabolic Stability Assay
as §1, §2, §3, §4, §5, §6, §7, §8, §9, §10, §11, §12, §13, §14, §15, §16, §17, §18, §19, §20, §21, §22, §23, §24, §25, §26, §27, §28, §29, §30, §31, §32, §33, §34
Data set [8] is described as follows: Rat liver microsome stability assay. Particulars: 37 °C.
Method: Metabolic Stability Assay
as §1, §2, §3, §4, §5, §6, §7, §8, §9, §10, §11, §12, §13, §14, §15, §16, §17, §18, §19, §20, §21, §22, §23, §24, §25, §26, §27, §28, §29, §30, §31, §32, §33, §34
Data set [9] can be described thus: in vitro. As to conditions: chlorocebus sabaeus.
Another data set has as its system CYP3A. Details: method as in PMID 37171749. As to conditions: cited from earlier work.

As a reminder, the half-life is the time needed for the level to fall by half in the phase considered. In general, amount remaining refers to what is left of the initial amount, in per cent. One may read the pEC50 as the EC50 on a negative log10 scale, so that one unit is a factor of ten. For orientation: pIC50 means the negative decadic logarithm of the IC50, by convention in mol/L.

pEC50, pIC50: −log10 of the molar value. “And” between values parts separate entries of the source, which are not always exact repeats. Equal values may be shown once. Read-outs that look alike come from different tables or passages of the source. Where only a bound is given, the exact number is not on record here.

In the data set “in vitro [1]”, `Cn1cc(-c2cc(-c3cc(Cl)c(F)c(OCc4ccccc4Cl)c3)c(=O)n(-c3cccnc3)c2)c(=O)[nH]c1=O` [Compound 4] returned a half-life at 3 µM of 2.4 min; a share remaining at 5 min, 3 µM of 9.41%; a fraction remaining at 10 min, 3 µM of 5.25%; an amount remaining at 0.25 h, 3 µM of 2.96%. For the same compound, in “in vitro [2]”, the share remaining at 5 min, 3 µM is 46.1%; the share remaining at 10 min, 3 µM came out at 22.7%; the amount remaining at 0.25 h, 3 µM is 16.3%. The half-life at 3 µM in “in vitro [2]” (HLM t1/2) was determined as 7.2 min. Further, in the data set “in vitro [3]”, the half-life at 3 µM was determined as 4.8 min; the share remaining at 5 min, 3 µM is 63.6%; the share remaining at 10 min, 3 µM came out at 26.6%; the fraction remaining at 0.25 h, 3 µM came out at 17.4%. Besides, in data set [4], the “major microsomal metabolite / metabolic route” value is listed as “loss of the ortho-chlorobenzyl moiety”.
For `O=c1[nH]cccc1-c1cn(-c2cc(Cl)cc(OCc3ccccc3Cl)c2)c(=O)n(-c2cccnc2)c1=O` [Compound 43], in data set [5] (3 μM, 37 °C, 30 min), the “HLM percentage remaining after 30 min” value was 48% and 47.72%. The half-life at 3 µM in data set [5] (human, microsomes) is 27.8 min; in [7] (CD-1, mouse, microsomes) it was 3 min; in data set [8] (Sprague-Dawley, rat, microsomes, RLM t1/2, 3 μM, unit inferred), 16.1 min. In addition, the fraction remaining at 5 min, 3 µM in data set [5] (human, microsomes) was determined as 91.6%; in [7] (CD-1, mouse, microsomes), 22.8%; in [8] (Sprague-Dawley, rat, microsomes, RLM Rel % remaining, 5 min), 71.1%. Moreover, the share remaining at 10 min, 3 µM in data set [5] (human, microsomes) is 76.9%; in data set [7] (CD-1, mouse, microsomes) it was 10.4%; in data set [8] (Sprague-Dawley, rat, microsomes, RLM Rel % remaining, 10 min), 55.3%. Moreover, the share remaining at 0.25 h, 3 µM was determined as 70.7% in data set [5] (human, microsomes); 7.53% in [7] (CD-1, mouse, microsomes); 43.5% in data set [8] (Sprague-Dawley, rat, microsomes, RLM Rel % remaining, 15 min). Also, the “EC50 range in words” value in data set [6] was “sub-micromolar”. Moreover, in [6], the pEC50 was 6.89. Also, the “IC50 range in words” value at SARS-CoV-2 Mpro (3CLpro) was “single-digit nanomolar range”. Also, the pIC50 at SARS-CoV-2 Mpro (3CLpro) (recombinant Mpro, FRET peptide substrate) is 8.07. The “MLM percentage remaining after 30 min” value in data set [7] (3 μM, 37 °C, 30 min) is 4.0% and 3.96%. Further, in [8] (3 μM, 30 min), the “RLM percentage remaining after 30 min” value is 26.6% and 26.55% and 30.88%. Besides, the “RLM t1/2” value in data set [8] (3 μM, unit not given) is reported as 19.8 min. Besides, the “RLM Rel % remaining” value in data set [8] (5 min) is 80.16%; in data set [8] (10 min) it was 63.43%; in data set [8] (15 min), 57.78%. The compound further had a CC50 in “in vitro [9]” of more than 100000 nM. Besides, the “major microsomal metabolite / metabolic route” value in data set [4] (liver microsomes, LC-HRMS) is “ether cleavage”.
In the case of `Cn1cnc(Cn2c(=O)[nH]/c(=N\c3cc4cn(C)nc4cc3Cl)n(Cc3cc(F)c(F)cc3F)c2=O)n1` [Compound S-217622, ensitrelvir, reference compound], the CYP3A inhibition result with CYP3A is recorded as “strong CYP3A inhibitor”. Further, in data set [6], the negative-log EC50 (pEC50) was 6.64.
